{
  "source": "paper PMC6273488",
  "about": "“Synthesis and Biological Evaluation of Benzochromenopyrimidinones as Cholinesterase Inhibitors and Potent Antioxidant, Non-Hepatotoxic Agents for Alzheimer’s Disease” (Molecules, 2016)",
  "key": {"[1]": {"target": "T1, horse serum BuChE (eqBuChE) (Equus caballus, UniProt P81908)", "T1 construct": "BuChE from horse serum (lyophilized powder, Sigma-Aldrich); purchased Sigma-Aldrich; host or cells: horse serum", "T1 sequence (P81908 whole entry)": "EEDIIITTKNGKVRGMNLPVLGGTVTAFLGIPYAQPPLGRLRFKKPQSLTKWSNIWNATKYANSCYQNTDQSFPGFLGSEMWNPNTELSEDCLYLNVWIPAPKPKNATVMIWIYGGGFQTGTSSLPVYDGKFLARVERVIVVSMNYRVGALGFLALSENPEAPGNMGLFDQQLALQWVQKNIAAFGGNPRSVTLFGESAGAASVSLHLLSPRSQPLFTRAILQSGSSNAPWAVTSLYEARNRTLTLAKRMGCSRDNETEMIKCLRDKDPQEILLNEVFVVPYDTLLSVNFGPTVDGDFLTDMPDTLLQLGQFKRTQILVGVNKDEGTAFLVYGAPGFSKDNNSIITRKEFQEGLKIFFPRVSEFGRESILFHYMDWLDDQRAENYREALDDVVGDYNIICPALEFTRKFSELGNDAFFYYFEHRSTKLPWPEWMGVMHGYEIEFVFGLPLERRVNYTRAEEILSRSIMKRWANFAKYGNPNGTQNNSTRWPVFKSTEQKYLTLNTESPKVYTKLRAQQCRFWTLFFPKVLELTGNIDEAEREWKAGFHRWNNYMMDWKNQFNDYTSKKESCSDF", "test": "Inhibition of eqBuChE (Ellman's assay)", "type": "biochemical", "conditions": "10 µM compound", "experimental": "For the preliminary screening of the inhibitory potencies, Electrophorus electricus AChE (EeAChE) and horse serum BuChE (eqBuChE) were used following the Ellman’s assay.\nAssessment of the inhibitory power of BCPOs was performed following the spectrophotometric method of Ellman using purified AChE from Electrophorus electricus (Type V-S, Sigma-Aldrich) or BuChE from horse serum (lyophilized powder, Sigma-Aldrich). Enzymes were first dissolved in 0.1 M phosphate buffer (pH 8.0) and then aliquoted in small vials for easy handling. Compounds stock solutions in DMSO (10 mM) were diluted when necessary with DMSO to prepare appropriate dilutions of each compound. The assay was performed in a final volume of 3 mL of a 0.1 M phosphate-buffered solution at pH 8.0, containing 5,5′-dithiobis-2-nitrobenzoic acid (DTNB, 2625 µL, 0.35 mM, final concentration), EeAChE (29 µL, 0.035 U/mL final concentration) or eqBuChE (60 µL, 0.05 U/mL final concentration) tested compound (3 µL, different concentrations) and 1% (w/v) Bovine Albumin Serum phosphate-buffered (pH 8.0) solution (BSA, 40 µL). The inhibition in comparison to control without compound was determined by pre-incubating this blend at room temperature with each compound at nine different concentrations for 10 min. Then, acetylthiocholine iodide (105 µL, 0.35 mM, final concentration) or butyrylthiocholine iodide (150 µL, 0.5 mM final concentration) was added and incubated for another 15 min at rt. […] Calculation of IC50 values was performed with GraphPad Prism 5. Each concentration was measured in triplicate. Data are expressed as mean ± SEM."}, "[2]": {"target": "T2, human recombinant AChE (hAChE) (Homo sapiens, UniProt P22303)", "T2 construct": "purchased Sigma-Aldrich", "T2 sequence (P22303 32-614)": "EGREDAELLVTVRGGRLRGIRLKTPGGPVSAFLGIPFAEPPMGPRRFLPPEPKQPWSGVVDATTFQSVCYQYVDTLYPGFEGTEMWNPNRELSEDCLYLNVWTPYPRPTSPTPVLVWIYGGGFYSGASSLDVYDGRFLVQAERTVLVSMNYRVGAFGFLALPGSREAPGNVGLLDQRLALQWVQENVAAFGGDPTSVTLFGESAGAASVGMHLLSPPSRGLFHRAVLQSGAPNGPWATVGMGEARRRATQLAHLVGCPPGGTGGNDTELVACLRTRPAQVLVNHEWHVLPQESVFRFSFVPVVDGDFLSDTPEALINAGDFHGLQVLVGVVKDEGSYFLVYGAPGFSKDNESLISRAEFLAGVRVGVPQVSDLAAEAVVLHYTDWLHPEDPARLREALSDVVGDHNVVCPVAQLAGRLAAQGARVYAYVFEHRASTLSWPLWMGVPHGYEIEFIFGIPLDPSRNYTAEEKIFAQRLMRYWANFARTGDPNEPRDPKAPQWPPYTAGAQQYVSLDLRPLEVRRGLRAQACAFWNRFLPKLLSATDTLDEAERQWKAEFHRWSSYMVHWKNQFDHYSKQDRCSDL", "test": "biochemical", "experimental": "Ellman’s assay was followed to evaluate the anticholinesterasic potency of BCPOs using human recombinant AChE (Sigma-Aldrich). 500 U of hAChE were dissolved in 1 mL of a gelatine solution (1% in water) and diluted with demineralized water to give a stock solution of 5 U/mL. […] All assays were performed in 0.1 M phosphate buffer pH 8.0. The assayed compounds or blank (water) (25 µL) were incubated with the enzyme (20 µL) for 5 min at 37 °C in 765 µL of phosphate buffer prior to start the reaction. Then, 20 µL of DTNB and 20 µL of ATC were added. […] IC50 values were determined with GraphPad Prism 5. Each concentration was measured in triplicate. Data are expressed as mean ± SEM."}, "[3]": {"test": "Oxygen radical absorbance capacity by fluorescence (ORAC-FL)", "conditions": "mean ± SD", "experimental": "Trolox was used as standard, fluorescein as fluorescent probe and 2,2′-azobis(2-amidinopropane) dihydrochloride (AAPH) as the peroxyl radical source. Ferulic acid was used as a positive control.\nThe antioxidant power of BCPOs was determined following the ORAC-FL method using fluorescein as the fluorescent probe. (±)-6-Hydroxy-2,5,7,8-tetramethylchromane-2-carboxylic acid (Trolox), fluorescein (FL) and AAPH were bought from Sigma-Aldrich (Saint Louis, MO, USA). A Varioskan Flash plate reader with built-in injectors (Thermo Scientific, Waltham, MA, USA) was used. The final volume reaction mixture was 200 µL and the reaction was carried out at 37 °C in 75 mM phosphate buffer (pH 7.4). The tested compounds and Trolox standard were dissolved in DMSO to 10 mM and further diluted in phosphate buffer. The final concentrations were 0.1–1 µM for the tested compounds and 1–8 µM for Trolox standard. The blank was composed of 120 µL of FL, 60 µL of AAPH and 20 µL of phosphate buffer (pH = 7.4) and was added in each assay. The antioxidant (20 µL) and fluorescein (FL, 120 µL, final concentration of 70 nM) were incubated in a black 96-well microplate Nunc, purchazed from Thermo Fisher Scientific, Ecublens, Switzerland) for 15 min at 37 °C. Then, AAPH, 60 µL, final concentration of 12 mM) solution was added quickly using the built-in injector. […] The microplate was automatically shaken prior to each reading. All the experiments were made in triplicate and at least three different assays were performed for each sample.\nUsing MS Excel software, regression equations were extrapolated by plotting the net AUC against the antioxidant concentration. The ORAC values were then obtained by dividing the slope of the latter curve between the slope of the Trolox curve obtained in the same assay. Final ORAC values were expressed as Trolox equivalents. Data are expressed as mean ± SD."}, "in vitro": {"test": "in vitro", "type": "cell-based", "conditions": "human, HepG2 cells, 24 h, MTT, read-out: In vitro toxicity (% cell viability); for viability at 24 h, 1 µM: HepG2, 1 µM; for viability at 24 h, 3 µM: HepG2, 3 µM; for viability at 24 h, 10 µM: HepG2, 10 µM; for viability at 24 h, 30 µM: HepG2, 30 µM; for viability at 24 h, 100 µM: HepG2, 100 µM; for viability at 24 h, 300 µM: HepG2, 300 µM; for viability at 24 h, 1 mM: HepG2, 1 mM", "experimental": "(§1) A prerequisite for any effective lead drug is to keep its cytotoxicity at the lowest possible level. In this regard, we submitted the four most promising compounds (3Ab, 3Bb, 3Cb and 3Ba) to an in vitro toxicologic evaluation (MTT assay) using human hepatocellular carcinoma cell line (HepG2) which represents a good probe to evaluate hepatotoxic effects. […].\n(§2) HepG2 cells were purchased from American Type Culture Collection. The cells were cultured in Eagle’s Minimum Essential Medium (Ozyme, France) supplemented with 10% fetal bovine serum, 1X non-essential amino acids, 100 units/mL penicillin and […] streptomycin (Dutscher, Brumath, France). Cultures were kept under a CO2/air (5%/95%) humidified atmosphere at 37 °C. Prior to the experiment, cells were seeded in 96-well culture plates at a density of 0.1 × 10^6 cells per well. After 24 h of incubation, the culture medium was refreshed and 100 µL of the test compounds or DMSO (0.1%) were added. […] For the MTT assay, after 24 h of treatment, cells were incubated with 50 µL MTT (0.5 mg/mL, Sigma Aldrich, city, France) at 37 °C for 2 h. Plates were centrifuged, MTT was removed and 100 µL DMSO was distributed per well. The absorbance at 570 nm was measured using microplate reader (brand). Cell viability was expressed as percentage of cell viability compared to controls (DMSO, 0.1%)."}, "HepG2 cells": {"tested_on": "HepG2 cells", "test": "in vitro", "type": "cell-based", "conditions": "HepG2, MTT, concentrations up to 1000 μM", "experimental": "as §1, §2"}},
  "note": "Where “and” joins values, the source holds several entries; their conditions need not be identical. Identical values can stand only once. Like-named read-outs stand apart in the source and are kept apart here.",
  "data": [
    {"smiles": "O=c1c2c(nc3n1CCCC3)Oc1ccc3ccccc3c1C2c1ccccc1", "note": "(stereo not drawn) [3Ab, 15-Phenyl-10,11,12,15-tetrahydro-9H-benzo[5,6]chromeno[2,3-d]pyrido[1,2-a]pyrimidin-14-one]", "values": [
      {"measurement": "inhibition at 10 µM", "setting": "[1]", "result": "31.2 ± 1.8", "unit": "%"},
      {"measurement": "IC50", "setting": "[2]; mean ± SEM", "result": "3660 ± 59", "unit": "nM"},
      {"measurement": "ORAC", "setting": "[3]", "result": "2.3 ± 0.3", "unit": "Trolox equivalents"},
      {"measurement": "viability at 24 h, 1 µM", "setting": "in vitro", "result": "99.3 ± 4", "unit": "%"},
      {"measurement": "viability at 24 h, 3 µM", "setting": "in vitro", "result": "95.3 ± 2.3", "unit": "%"},
      {"measurement": "viability at 24 h, 10 µM", "setting": "in vitro", "result": "98.5 ± 2.5", "unit": "%"},
      {"measurement": "viability at 24 h, 30 µM", "setting": "in vitro", "result": "91.5 ± 4.5", "unit": "%"},
      {"measurement": "viability at 24 h, 100 µM", "setting": "in vitro", "result": "101 ± 3.1", "unit": "%"},
      {"measurement": "viability at 24 h, 300 µM", "setting": "in vitro", "result": "110 ± 5.5", "unit": "%"},
      {"measurement": "viability at 24 h, 1 mM", "setting": "in vitro", "result": "110 ± 4.4", "unit": "%"},
      {"measurement": "hepatotoxicity on HepG2 cells (in words)", "setting": "HepG2 cells", "result": "non-hepatotoxic"}
    ]},
    {"smiles": "COc1cccc(C2c3c(nc4n(c3=O)CCC4)Oc3ccc4ccccc4c32)c1", "note": "(stereo not drawn) [3Ba, 14-(3′Methoxyphenyl)-10,11-dihydro-14H-benzo[5,6]chromeno[2,3-d]pyrrolo[1,2-a]pyrimidin-13(9H)-one]", "values": [
      {"measurement": "inhibition at 10 µM", "setting": "[1]", "result": "51 ± 4", "unit": "%"},
      {"measurement": "IC50", "setting": "[2]; mean ± SEM", "result": "1530 ± 25", "unit": "nM"},
      {"measurement": "ORAC", "setting": "[3]", "result": "3.4 ± 0.2", "unit": "Trolox equivalents"},
      {"measurement": "viability at 24 h, 1 µM", "setting": "in vitro", "result": "109 ± 2", "unit": "%"},
      {"measurement": "viability at 24 h, 3 µM", "setting": "in vitro", "result": "108 ± 4.8", "unit": "%"},
      {"measurement": "viability at 24 h, 10 µM", "setting": "in vitro", "result": "106 ± 3.5", "unit": "%"},
      {"measurement": "viability at 24 h, 30 µM", "setting": "in vitro", "result": "99.2 ± 4.2", "unit": "%"},
      {"measurement": "viability at 24 h, 100 µM", "setting": "in vitro", "result": "97 ± 5.4", "unit": "%"},
      {"measurement": "viability at 24 h, 300 µM", "setting": "in vitro", "result": "108 ± 2.8", "unit": "%"},
      {"measurement": "viability at 24 h, 1 mM", "setting": "in vitro", "result": "120 ± 6.8", "unit": "%"},
      {"measurement": "hepatotoxicity on HepG2 cells (in words)", "setting": "HepG2 cells", "result": "non-hepatotoxic"}
    ]},
    {"smiles": "COc1cccc(C2c3c(nc4n(c3=O)CCCC4)Oc3ccc4ccccc4c32)c1", "note": "(stereo not drawn) [3Bb, 15-(3′-Methoxyphenyl)-10,11,12,15-tetrahydro-9H-benzo[5,6]chromeno[2,3-d]pyrido[1,2-a]pyrimidin-14-one]", "values": [
      {"measurement": "inhibition at 10 µM", "setting": "[1]", "result": "43 ± 1.9", "unit": "%"},
      {"measurement": "IC50", "setting": "[2]", "result": "1280 ± 30", "unit": "nM"},
      {"measurement": "IC50", "setting": "[2]; mean ± SEM", "result": "1280 ± 32", "unit": "nM"},
      {"measurement": "ORAC", "setting": "[3]", "result": "4.7 Trolox equivalents and 4.7 ± 0.2 Trolox equivalents"},
      {"measurement": "viability at 24 h, 1 µM", "setting": "in vitro", "result": "108 ± 2.4", "unit": "%"},
      {"measurement": "viability at 24 h, 3 µM", "setting": "in vitro", "result": "111 ± 8.7", "unit": "%"},
      {"measurement": "viability at 24 h, 10 µM", "setting": "in vitro", "result": "105 ± 4.2", "unit": "%"},
      {"measurement": "viability at 24 h, 30 µM", "setting": "in vitro", "result": "104 ± 5", "unit": "%"},
      {"measurement": "viability at 24 h, 100 µM", "setting": "in vitro", "result": "112 ± 2.3", "unit": "%"},
      {"measurement": "viability at 24 h, 300 µM", "setting": "in vitro", "result": "118 ± 7.3", "unit": "%"},
      {"measurement": "viability at 24 h, 1 mM", "setting": "in vitro", "result": "128 ± 5", "unit": "%"},
      {"measurement": "hepatotoxicity on HepG2 cells (in words)", "setting": "HepG2 cells", "result": "non-hepatotoxic"}
    ]},
    {"smiles": "Cc1ccc(C2c3c(nc4n(c3=O)CCCC4)Oc3ccc4ccccc4c32)cc1", "note": "(stereo not drawn) [3Cb, 15-(4′-Methylphenyl)-10,11,12,15-tetrahydro-9H-benzo[5,6]chromeno[2,3-d]pyrido[1,2-a]pyrimidin-14-one]", "values": [
      {"measurement": "inhibition at 10 µM", "setting": "[1]", "result": "19 ± 2", "unit": "%"},
      {"measurement": "IC50", "setting": "[2]; mean ± SEM", "result": "1590 ± 24", "unit": "nM"},
      {"measurement": "ORAC", "setting": "[3]", "result": "3.9 ± 0.3", "unit": "Trolox equivalents"},
      {"measurement": "viability at 24 h, 1 µM", "setting": "in vitro", "result": "106 ± 7", "unit": "%"},
      {"measurement": "viability at 24 h, 3 µM", "setting": "in vitro", "result": "103 ± 10.8", "unit": "%"},
      {"measurement": "viability at 24 h, 10 µM", "setting": "in vitro", "result": "110 ± 9.1", "unit": "%"},
      {"measurement": "viability at 24 h, 30 µM", "setting": "in vitro", "result": "113 ± 5.8", "unit": "%"},
      {"measurement": "viability at 24 h, 100 µM", "setting": "in vitro", "result": "103 ± 5.7", "unit": "%"},
      {"measurement": "viability at 24 h, 300 µM", "setting": "in vitro", "result": "113 ± 5.2", "unit": "%"},
      {"measurement": "viability at 24 h, 1 mM", "setting": "in vitro", "result": "110 ± 8", "unit": "%"},
      {"measurement": "hepatotoxicity on HepG2 cells (in words)", "setting": "HepG2 cells", "result": "non-hepatotoxic"}
    ]}
  ]
}
